Reference: ChEMBL document CHEMBL1201862, “PubChem BioAssay data set” (2004)
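Each compound was tested at five concentrations against cells in 96-well plates for 48 hours. GI50: concentration for 50% inhibition of growth.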 The source made the active and inactive calls. Cut-off read from the data, not from the text of the source: active = GI50 up to about 1.1 µM and inactive = higher.

Assays:
Experiment in all cases: NCI tumour cell line growth inhibition, 48 h
[1] = test system: HCT-116
[2] = test system: XF498
[3] = test system: ACHN
[4] = test system: LOX IMVI
[5] = test system: CAKI-1
[6] = test system: TK-10
[7] = test system: NCI-H522
[8] = test system: SF-295
[9] = test system: SK-MEL-28
[10] = test system: OVCAR-5
[11] = test system: SR
[12] = test system: NCI-H23
[13] = test system: HT-29
[14] = test system: A549
[15] = test system: HCT-15
[16] = test system: UACC-257
[17] = test system: HOP-62
[18] = test system: HL-60
[19] = test system: NCI-H460
[20] = test system: DMS-114
[21] = test system: A498
[22] = test system: KM-20L2
[23] = test system: M14
[24] = test system: EKVX
[25] = test system: SW-620
[26] = test system: SF-268
[27] = test system: IGROV-1
[28] = test system: OVCAR-3
[29] = test system: DMS-273
[30] = test system: UACC-62
[31] = test system: M19-MEL
[32] = test system: OVCAR-8
[33] = test system: UO-31
[34] = test system: SK-MEL-5
[35] = test system: DLD-1
[36] = test system: COLO 205
[37] = test system: SNB-19
[38] = test system: HCC 2998
[39] = test system: LXFL 529
[40] = test system: SK-MEL-2
[41] = test system: SK-OV-3
[42] = test system: K562
[43] = test system: U-251
[44] = test system: Malme-3M
[45] = test system: RXF 393
[46] = test system: RPMI-8226
[47] = test system: KM12
[48] = test system: 786-0
[49] = test system: CCRF-CEM
[50] = test system: OVCAR-4
[51] = test system: SN12C
[52] = test system: SF-539
[53] = test system: HOP-92
[54] = test system: MOLT-4
[55] = test system: HOP-18
[56] = test system: SNB-78
[57] = test system: SNB-75

CCOc1ncnc2ccc(Cl)c(I)c12
GI50 [1]: 82.2 µM (inactive)
GI50 [2]: 45.4 µM (inactive)
GI50 [3]: 33.6 µM (inactive)
GI50 [4]: 49.4 µM (inactive)
GI50 [5]: 22.6 µM (inactive)
GI50 [6]: 62.7 µM (inactive)
GI50 [7]: > 10 µM (inactive)
GI50 [8]: > 100 µM (inactive)
GI50 [9]: > 100 µM (inactive)
GI50 [10]: > 100 µM (inactive)
GI50 [11]: 47.2 µM (inactive)
GI50 [12]: 79.1 µM (inactive)
GI50 [13]: > 100 µM (inactive)
GI50 [14]: 75.7 µM (inactive)
GI50 [15]: > 100 µM
GI50 [16]: > 100 µM (inactive)
GI50 [17]: > 100 µM (inactive)
GI50 [18]: 38.8 µM (inactive)
GI50 [19]: 80.7 µM (inactive)
GI50 [20]: 45.1 µM (inactive)
GI50 [21]: 31 µM (inactive)
GI50 [22]: > 100 µM (inactive)
GI50 [23]: 75.2 µM (inactive)
GI50 [24]: 11.2 µM (inactive)
GI50 [25]: > 100 µM (inactive)
GI50 [26]: 31.2 µM (inactive)
GI50 [27]: 38.7 µM (inactive)
GI50 [28]: > 100 µM (inactive)
GI50 [29]: > 100 µM (inactive)
GI50 [30]: 46.5 µM (inactive)
GI50 [31]: > 100 µM (inactive)
GI50 [32]: > 100 µM (inactive)
GI50 [33]: 27.7 µM (inactive)
GI50 [34]: 59.8 µM (inactive)
GI50 [35]: 99.1 µM (inactive)
GI50 [36]: > 100 µM (inactive)
GI50 [37]: 89.1 µM (inactive)
GI50 [38]: > 100 µM (inactive)
GI50 [39]: 81.1 µM (inactive)
GI50 [40]: 53.1 µM (inactive)
GI50 [41]: 36.4 µM (inactive)
GI50 [42]: 88.7 µM (inactive)
GI50 [43]: > 100 µM (inactive)
GI50 [44]: > 100 µM (inactive)
GI50 [45]: 15 µM (inactive)
GI50 [46]: 29.5 µM (inactive)
GI50 [47]: 91 µM (inactive)
GI50 [48]: 87.9 µM (inactive)
GI50 [49]: 70.6 µM (inactive)
GI50 [50]: 56.6 µM (inactive)
GI50 [51]: 67.5 µM (inactive)

NC(=O)c1ccccc1[N+](=O)[O-]
GI50 [1]: > 100 µM (inactive)
GI50 [2]: > 100 µM (inactive)
GI50 [3]: > 100 µM (inactive)
GI50 [52]: > 100 µM (inactive)
GI50 [5]: > 100 µM (inactive)
GI50 [53]: > 100 µM (inactive)
GI50 [9]: > 100 µM (inactive)
GI50 [54]: > 100 µM (inactive)
GI50 [55]: > 100 µM (inactive)
GI50 [13]: > 100 µM (inactive)
GI50 [14]: > 100 µM (inactive)
GI50 [15]: > 100 µM
GI50 [17]: > 100 µM (inactive)
GI50 [20]: > 100 µM (inactive)
GI50 [21]: > 100 µM (inactive)
GI50 [22]: > 100 µM (inactive)
GI50 [24]: > 100 µM (inactive)
GI50 [25]: > 100 µM (inactive)
GI50 [26]: > 100 µM (inactive)
GI50 [27]: > 100 µM (inactive)
GI50 [28]: > 100 µM (inactive)
GI50 [29]: > 100 µM (inactive)
GI50 [30]: > 100 µM (inactive)
GI50 [31]: > 100 µM (inactive)
GI50 [32]: > 100 µM (inactive)
GI50 [34]: > 100 µM (inactive)
GI50 [36]: > 100 µM (inactive)
GI50 [37]: > 100 µM (inactive)
GI50 [38]: > 100 µM (inactive)
GI50 [56]: > 100 µM (inactive)
GI50 [57]: > 100 µM (inactive)
GI50 [42]: > 100 µM (inactive)
GI50 [43]: > 100 µM (inactive)
GI50 [44]: > 100 µM (inactive)
GI50 [46]: > 100 µM (inactive)
GI50 [48]: > 100 µM (inactive)
GI50 [49]: > 10 µM (inactive)
GI50 [51]: > 100 µM (inactive)

CCOC(=O)CC[C@@H](NC(=O)c1ccc(N[C@@H]2c3cc4c(cc3C(c3cc(OC)c(O)c(OC)c3)C3C(=O)OC[C@@H]32)OCO4)cc1)C(=O)OCC (stereo partly specified)
GI50 [3]: 0.0115 µM (active)
GI50 [52]: 0.0157 µM (active)
GI50 [4]: 0.0205 µM (active)
GI50 [5]: 0.013 µM (active)
GI50 [53]: 0.0205 µM (active)
GI50 [6]: 0.11 µM (active)
GI50 [7]: 0.0975 µM (active)
GI50 [8]: 0.0121 µM (active)
GI50 [9]: 0.2 µM (active)
GI50 [10]: 0.0652 µM (active)
GI50 [11]: > 10 µM (inactive)
GI50 [12]: 0.0103 µM (active)
GI50 [54]: 0.00194 µM (active)
GI50 [55]: 0.249 µM (active)
GI50 [13]: 0.0427 µM (active)
GI50 [14]: 0.0222 µM (active)
GI50 [15]: 0.0637 µM
GI50 [16]: 0.13 µM (active)
GI50 [17]: 0.0127 µM (active)
GI50 [18]: 0.00292 µM (active)
GI50 [19]: 0.001 µM (active)
GI50 [21]: 0.0129 µM (active)
GI50 [22]: 0.0404 µM (active)
GI50 [23]: 5.24 µM (inactive)
GI50 [24]: 0.0251 µM (active)
GI50 [25]: 0.0396 µM (active)
GI50 [26]: 0.0208 µM (active)
GI50 [27]: 0.0706 µM (active)
GI50 [28]: 0.143 µM (active)
GI50 [29]: 0.00566 µM (active)
GI50 [30]: 0.0167 µM (active)
GI50 [31]: 0.0608 µM (active)
GI50 [32]: 0.0251 µM (active)
GI50 [33]: 0.0627 µM (active)
GI50 [34]: 0.0247 µM (active)
GI50 [35]: 0.123 µM (active)
GI50 [36]: 0.119 µM (active)
GI50 [37]: 0.0197 µM (active)
GI50 [38]: 0.136 µM (active)
GI50 [56]: 0.859 µM (active)
GI50 [57]: 0.0787 µM (active)
GI50 [39]: 7.23 µM (inactive)
GI50 [40]: 0.0863 µM (active)
GI50 [41]: 0.0144 µM (active)
GI50 [42]: 0.0469 µM (active)
GI50 [43]: 0.0175 µM (active)
GI50 [44]: 0.0995 µM (active)
GI50 [46]: 0.0411 µM (active)
GI50 [47]: 0.0322 µM (active)
GI50 [48]: 3.85 µM (inactive)
GI50 [49]: 0.00525 µM (active)
GI50 [51]: 0.0256 µM (active)
